Experimental data reported in patent US12391664B2, “GluN2C/D subunit selective antagonists of the N-methyl-D-aspartate receptor” (Emory University, priority 2018, dated 2025).
Read-outs that look alike come from different tables or passages of the source.

Experiments:
Format in all cases: cell-based
[1] = biological target: T1, recombinant rat GluN1/GluN2A (Rattus norvegicus, UniProt Q00959); assay: Two-electrode voltage-clamp recordings in Xenopus laevis oocytes, GluN2A; details: for I3 μM/Icontrol (mean ± SEM, %) GluN2A: 3 μM compound with 100 μM glutamate and 30 μM glycine, control set as 1; for GluN2A IC50: oocytes, 100 μM glutamate and 30 μM glycine
T1 construct: expressed in transfected cells; host or cells: Xenopus laevis oocytes injected with cRNA (GluN1:GluN2 ratio 1:2)
T1 sequence (Q00959 23-1464, other chains not shown): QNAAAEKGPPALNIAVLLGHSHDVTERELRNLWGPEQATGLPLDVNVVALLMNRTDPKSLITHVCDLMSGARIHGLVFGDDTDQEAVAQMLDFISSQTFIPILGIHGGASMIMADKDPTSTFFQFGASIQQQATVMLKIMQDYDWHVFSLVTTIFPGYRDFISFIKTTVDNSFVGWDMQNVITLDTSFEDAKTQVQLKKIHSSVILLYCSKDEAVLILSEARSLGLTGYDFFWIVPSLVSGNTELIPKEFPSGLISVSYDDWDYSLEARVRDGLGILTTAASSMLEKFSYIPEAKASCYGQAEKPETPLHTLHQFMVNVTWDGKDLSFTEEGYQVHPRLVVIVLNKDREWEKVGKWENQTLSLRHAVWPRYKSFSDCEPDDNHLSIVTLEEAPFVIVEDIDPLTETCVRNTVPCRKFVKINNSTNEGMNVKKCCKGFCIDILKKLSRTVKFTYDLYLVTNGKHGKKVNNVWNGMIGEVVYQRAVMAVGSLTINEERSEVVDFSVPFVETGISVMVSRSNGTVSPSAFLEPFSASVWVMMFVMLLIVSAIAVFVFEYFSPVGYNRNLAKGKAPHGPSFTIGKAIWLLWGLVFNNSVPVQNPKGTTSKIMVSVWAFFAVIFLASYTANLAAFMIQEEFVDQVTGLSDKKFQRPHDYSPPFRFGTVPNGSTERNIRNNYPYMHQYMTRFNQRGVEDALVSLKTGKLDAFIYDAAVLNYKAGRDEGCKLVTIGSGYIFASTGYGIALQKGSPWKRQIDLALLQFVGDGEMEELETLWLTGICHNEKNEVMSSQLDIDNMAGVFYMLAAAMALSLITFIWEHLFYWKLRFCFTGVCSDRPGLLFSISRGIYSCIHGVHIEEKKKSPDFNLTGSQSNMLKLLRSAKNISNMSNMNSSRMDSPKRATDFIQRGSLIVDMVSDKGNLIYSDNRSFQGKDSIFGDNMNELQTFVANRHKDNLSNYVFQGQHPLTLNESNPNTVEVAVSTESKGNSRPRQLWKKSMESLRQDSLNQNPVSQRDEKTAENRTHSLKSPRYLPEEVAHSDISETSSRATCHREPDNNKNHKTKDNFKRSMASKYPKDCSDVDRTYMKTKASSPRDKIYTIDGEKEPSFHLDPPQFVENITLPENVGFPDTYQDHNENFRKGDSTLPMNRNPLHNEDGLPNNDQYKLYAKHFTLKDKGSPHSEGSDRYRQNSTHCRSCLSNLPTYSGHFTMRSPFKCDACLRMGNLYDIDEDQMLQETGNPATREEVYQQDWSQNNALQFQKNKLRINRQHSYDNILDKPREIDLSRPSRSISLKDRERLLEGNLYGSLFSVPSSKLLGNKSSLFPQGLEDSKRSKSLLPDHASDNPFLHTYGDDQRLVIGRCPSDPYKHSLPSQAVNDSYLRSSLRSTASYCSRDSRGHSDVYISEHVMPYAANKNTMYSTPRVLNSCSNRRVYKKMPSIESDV
Protocol: (§1) All target compounds were evaluated for activity by the Traynelis laboratory at Emory University using two-electrode voltage-clamp recordings performed in Xenopus laevis oocytes expressing recombinant GluN2A-D subunits (Table 1). […] Two ester compounds 997-65 and 997-66 also performed no inhibition at GluN2A to GluN2D receptors. […] Consequently, for the compounds that Acker et al. already published, it was necessary to increase the concentration to 100 μM when collecting data for a concentration effect curve. […] Therefore, under this condition, we can only conclude that compound 997-67 remained potent at GluN2C/D-containing receptors, but its selectivity over GluN2A- and GluN2B-containing receptors could not be compared to 997-57. […] Finally, replacing the carboxylic acid to the bio-isostere amide yielded compounds 997-96 and 997-115, which dropped the potency 2- to 4-fold in comparison to their corresponding acids 997-74 and 997-114.
(§2) Two-electrode voltage-clamp recordings were performed in Xenopus laevis oocytes that were injected with mRNA to express recombinant rat GluN1/GluN2A, GluN1/GluN2B, GluN1/GluN2C, and GluN1/GluN2D. The recordings using unfertilized oocytes from Xenopus laevis were permitted by Emory University Institutional Animal Care and Use Committee (IACUC). An automatic injector (Nanoject II, Drummond Scientific) was used for cRNA injection using the pipettes filled with mineral oil. The cRNA that transcribed in vitro via the mMessage Machine kit (Ambion) was diluted with nuclease-free water, and then injected at GluN1/GluN2 with a ratio of 1:2. The oocytes were stored in Barth's solution that contained 88 mM NaCl, 5.0 mM Tris-HCl, 2.4 mM NaHCO3, 1.0 mM KCl, 0.84 mM MgSO4, 0.41 mM CaCl2, 0.33 mM Ca(NO3)2, 0.1 mg/ml gentamycin sulfate, 1.0 U/ml penicillin, and 1 μg/ml streptomycin at a pH of 7.4 and temperatures of 15-17° C. for two to five days before the two-electrode voltage-clamp recordings. When recording, the oocytes were placed in a perfusion chamber and continually washed with the recording solution comprised of 90 mM NaCl, 1.0 mM KCl, 0.50 mM BaCl2, 0.005 mM EDTA, and 10 mM HEPES at a pH of 7.4 and a temperature of 23° C. Glass electrodes with a tip resistance of 0.5 to 2.5 MΩ were obtained from thin-walled glass capillary tubes. Voltage electrodes and current electrodes were filled with 0.3 M and 3.0 M KCl, respectively. The recordings were executed with the oocytes membrane potential holding at −40 m V by an OC-725 amplifier (Warner Instrument Co). All compounds were dissolved in dimethyl sulfoxide (DMSO) as 20 mM stock solutions and future diluted to reach the desired concentration (0.05-0.5% (vol/vol) DMSO) in recording solution comprised of 30 μM glycine and 100 μM glutamate. Each compound was recorded 3-7 times in the least 4 oocytes from at least 2 different Xenopus laevis.
(§3) To evaluate the inhibition of compounds, the concentration-response curve was fitted with the average two-electrode voltage-clamp recording results with the equation
(§4) [formula] • where IC50 is the concentration of compounds that inhibit half maximal of the current response and N is the Hill slope.

[2] = biological target: T2, recombinant rat GluN1/GluN2B (Rattus norvegicus, UniProt Q00960); assay: Two-electrode voltage-clamp recordings in Xenopus laevis oocytes, GluN2B; details: for I3 μM/Icontrol (mean ± SEM, %) GluN2B: 3 μM compound with 100 μM glutamate and 30 μM glycine, control set as 1; for GluN2B IC50: oocytes, 100 μM glutamate and 30 μM glycine
T2 construct: expressed in transfected cells; host or cells: Xenopus laevis oocytes injected with cRNA (GluN1:GluN2 ratio 1:2)
Protocol: as §1, §2, §3, §4

[3] = biological target: T3, recombinant rat GluN1/GluN2C (Rattus norvegicus, UniProt P35439+Q00961); assay: Two-electrode voltage-clamp recordings in Xenopus laevis oocytes, GluN2C
T3 construct: expressed in transfected cells; host or cells: Xenopus laevis oocytes injected with cRNA (GluN1:GluN2 ratio 1:2)
Protocol: as §1, §2, §3, §4

[4] = biological target: T4, recombinant rat GluN1/GluN2C (Rattus norvegicus, UniProt Q00961); assay: as above; details: for I3 μM/Icontrol (mean ± SEM, %) GluN2C: 3 μM compound with 100 μM glutamate and 30 μM glycine, control set as 1; for GluN2C IC50: oocytes, 100 μM glutamate and 30 μM glycine
T4 construct: expressed in transfected cells; host or cells: Xenopus laevis oocytes injected with cRNA (GluN1:GluN2 ratio 1:2)
Protocol: as §1, §2, §3, §4

[5] = biological target: T5, recombinant rat GluN1/GluN2D (Rattus norvegicus, UniProt P35439+Q62645); assay: Two-electrode voltage-clamp recordings in Xenopus laevis oocytes, GluN2D
T5 construct: expressed in transfected cells; host or cells: Xenopus laevis oocytes injected with cRNA (GluN1:GluN2 ratio 1:2)
T5 sequence (Q62645 28-1323, other chains not shown): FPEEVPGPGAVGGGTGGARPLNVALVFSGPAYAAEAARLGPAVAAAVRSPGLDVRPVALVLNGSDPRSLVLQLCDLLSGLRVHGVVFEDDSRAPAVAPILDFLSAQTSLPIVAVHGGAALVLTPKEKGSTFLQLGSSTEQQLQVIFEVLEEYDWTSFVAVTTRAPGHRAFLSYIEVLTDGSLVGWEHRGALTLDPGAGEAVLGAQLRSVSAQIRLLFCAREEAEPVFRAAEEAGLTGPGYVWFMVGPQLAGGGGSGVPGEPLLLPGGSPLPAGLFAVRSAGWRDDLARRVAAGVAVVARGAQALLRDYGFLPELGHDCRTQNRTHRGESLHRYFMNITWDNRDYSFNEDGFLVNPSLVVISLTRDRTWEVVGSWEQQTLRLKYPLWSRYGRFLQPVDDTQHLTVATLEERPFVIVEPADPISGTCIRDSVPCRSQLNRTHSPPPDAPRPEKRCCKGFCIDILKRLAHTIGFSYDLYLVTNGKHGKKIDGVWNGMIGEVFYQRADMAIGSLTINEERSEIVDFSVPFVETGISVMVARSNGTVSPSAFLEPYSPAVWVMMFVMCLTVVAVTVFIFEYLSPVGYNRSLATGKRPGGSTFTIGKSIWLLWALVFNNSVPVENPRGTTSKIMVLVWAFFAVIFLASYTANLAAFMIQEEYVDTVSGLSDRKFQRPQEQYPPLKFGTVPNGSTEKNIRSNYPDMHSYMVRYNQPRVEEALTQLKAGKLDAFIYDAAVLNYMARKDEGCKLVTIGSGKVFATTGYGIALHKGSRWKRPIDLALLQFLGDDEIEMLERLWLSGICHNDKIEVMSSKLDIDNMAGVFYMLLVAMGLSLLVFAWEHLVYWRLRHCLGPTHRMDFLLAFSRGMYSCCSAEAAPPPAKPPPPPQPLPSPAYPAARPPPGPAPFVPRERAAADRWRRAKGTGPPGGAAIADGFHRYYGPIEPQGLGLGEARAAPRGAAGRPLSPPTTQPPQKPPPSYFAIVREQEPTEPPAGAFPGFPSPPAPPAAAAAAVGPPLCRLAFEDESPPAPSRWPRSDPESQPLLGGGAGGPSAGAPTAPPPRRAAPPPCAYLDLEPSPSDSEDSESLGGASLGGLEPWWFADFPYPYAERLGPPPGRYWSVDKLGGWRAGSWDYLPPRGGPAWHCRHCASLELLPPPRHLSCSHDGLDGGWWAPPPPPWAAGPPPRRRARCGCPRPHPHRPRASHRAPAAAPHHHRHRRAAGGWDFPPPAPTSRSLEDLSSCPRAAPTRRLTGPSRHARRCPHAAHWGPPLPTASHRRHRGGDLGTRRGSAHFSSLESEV
Protocol: as §1, §2, §3, §4

[6] = biological target: T6, recombinant rat GluN1/GluN2D (Rattus norvegicus, UniProt Q62645); assay: as above; details: for I3 μM/Icontrol (mean ± SEM, %) GluN2D: 3 μM compound with 100 μM glutamate and 30 μM glycine, control set as 1; for GluN2D IC50: oocytes, 100 μM glutamate and 30 μM glycine
T6 construct: expressed in transfected cells; host or cells: Xenopus laevis oocytes injected with cRNA (GluN1:GluN2 ratio 1:2)
T6 sequence (Q62645 28-1323, other chains not shown): as above
Protocol: as §1, §2, §3, §4

[7] = biological target: T7, recombinant rat GluN1/GluN2B (Rattus norvegicus, UniProt P35439+Q00960); assay: Two-electrode voltage-clamp recordings in Xenopus laevis oocytes, GluN2B; details: oocytes, 100 μM glutamate and 30 μM glycine
T7 construct: expressed in transfected cells; host or cells: Xenopus laevis oocytes injected with cRNA (GluN1:GluN2 ratio 1:2)
T7 sequence (Q00960 27-1482, other chains not shown): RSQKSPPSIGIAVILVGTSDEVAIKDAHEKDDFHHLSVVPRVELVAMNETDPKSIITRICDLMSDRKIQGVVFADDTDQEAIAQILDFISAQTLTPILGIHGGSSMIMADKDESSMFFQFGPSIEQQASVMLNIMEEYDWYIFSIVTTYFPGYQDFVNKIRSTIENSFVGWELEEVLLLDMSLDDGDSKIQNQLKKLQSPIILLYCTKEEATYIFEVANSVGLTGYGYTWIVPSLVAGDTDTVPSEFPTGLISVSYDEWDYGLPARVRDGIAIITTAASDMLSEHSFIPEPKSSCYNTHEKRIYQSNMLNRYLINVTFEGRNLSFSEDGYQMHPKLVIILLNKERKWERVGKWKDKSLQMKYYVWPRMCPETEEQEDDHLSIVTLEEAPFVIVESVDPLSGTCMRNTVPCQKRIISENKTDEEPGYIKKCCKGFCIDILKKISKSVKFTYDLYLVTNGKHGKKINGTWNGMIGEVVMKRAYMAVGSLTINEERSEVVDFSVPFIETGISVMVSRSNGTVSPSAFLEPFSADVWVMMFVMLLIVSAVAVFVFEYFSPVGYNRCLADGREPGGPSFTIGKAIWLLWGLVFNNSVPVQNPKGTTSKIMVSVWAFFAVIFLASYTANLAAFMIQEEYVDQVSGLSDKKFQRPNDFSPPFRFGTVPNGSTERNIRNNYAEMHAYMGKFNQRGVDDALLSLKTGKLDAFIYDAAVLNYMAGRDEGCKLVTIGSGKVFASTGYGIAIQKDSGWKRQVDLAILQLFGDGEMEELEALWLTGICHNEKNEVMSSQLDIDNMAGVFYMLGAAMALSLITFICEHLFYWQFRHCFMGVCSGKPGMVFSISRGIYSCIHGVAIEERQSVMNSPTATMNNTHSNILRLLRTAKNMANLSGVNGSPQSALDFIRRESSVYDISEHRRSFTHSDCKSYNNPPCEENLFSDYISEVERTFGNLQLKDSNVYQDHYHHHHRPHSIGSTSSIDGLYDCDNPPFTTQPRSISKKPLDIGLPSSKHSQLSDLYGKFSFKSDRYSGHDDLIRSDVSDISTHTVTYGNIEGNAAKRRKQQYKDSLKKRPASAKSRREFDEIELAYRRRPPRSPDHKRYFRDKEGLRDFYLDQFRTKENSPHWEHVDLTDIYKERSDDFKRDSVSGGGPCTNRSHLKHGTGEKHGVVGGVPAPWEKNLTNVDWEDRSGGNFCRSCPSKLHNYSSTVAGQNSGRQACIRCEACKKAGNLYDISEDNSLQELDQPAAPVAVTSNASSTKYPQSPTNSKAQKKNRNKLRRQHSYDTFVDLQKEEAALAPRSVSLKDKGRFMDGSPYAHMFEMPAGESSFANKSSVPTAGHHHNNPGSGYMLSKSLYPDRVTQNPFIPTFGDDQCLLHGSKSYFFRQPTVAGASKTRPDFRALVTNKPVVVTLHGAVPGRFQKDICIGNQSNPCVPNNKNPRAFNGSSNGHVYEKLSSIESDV
Protocol: as §1, §2, §3, §4

[8] = biological target: T8, recombinant rat GluN1/GluN2A (Rattus norvegicus, UniProt P35439+Q00959); assay: Two-electrode voltage-clamp recordings in Xenopus laevis oocytes, GluN2A; details: oocytes, 100 μM glutamate and 30 μM glycine
T8 construct: expressed in transfected cells; host or cells: Xenopus laevis oocytes injected with cRNA (GluN1:GluN2 ratio 1:2)
Protocol: as §1, §2, §3, §4

[9] = oocytes, 100 μM glutamate and 30 μM glycine, read-out: GluN2C IC50
[10] = mean IC50 with bottom and top 95% confidence interval, read-out: Avg. GluN2D IC50 (95% CI)
[11] = oocytes, 100 μM glutamate and 30 μM glycine, read-out: GluN2D IC50
[12] = mean IC50 with bottom and top 95% confidence interval, read-out: Avg. GluN2C IC50 (95% CI)

Structure (SMILES): O=C(CC(F)(F)CO)N1N=C(c2c(-c3ccc(Cl)cc3)c3ccccc3[nH]c2=O)CC1c1ccc(Cl)cc1 (single isomer, unassigned; (+)) [(+)-997-67]
- I3 μM/Icontrol (mean ± SEM, %) GluN2A ([1]; listed as (+)-67): 98 ± 2.1%
- I3 μM/Icontrol (mean ± SEM, %) GluN2B ([2]; listed as (+)-67): 87 ± 2.8%
- IC50 [3, 9]: 8.5 µM
- I3 μM/Icontrol (mean ± SEM, %) GluN2C ([4]; listed as (+)-67): 74 ± 2.1%
- IC50 [5, 10]: 7.02 µM
- IC50 [5, 11]: 3.6 µM
- I3 μM/Icontrol (mean ± SEM, %) GluN2D ([6]; listed as (+)-67): 57 ± 3.5%

Structure (SMILES): O=C(O)CC(F)(F)C(=O)N1N=C(c2c(-c3ccc(Cl)cc3)c3ccccc3[nH]c2=O)C[C@H]1c1ccc(Cl)cc1 [(−)-997-74]
- I3 μM/Icontrol (mean ± SEM, %) GluN2A [1]: 67 ± 3.9%
- I3 μM/Icontrol (mean ± SEM, %) GluN2B [2]: 73 ± 4.8%
- IC50 [3, 12]: 0.11 µM
- IC50 [3, 9]: 0.094 µM
- I3 μM/Icontrol (mean ± SEM, %) GluN2C [4]: 9.3 ± 1.8%
- IC50 [5, 10]: 0.055 µM
- IC50 ([5]; read-out: IC50 at GluN2D-containing receptors): 0.046 µM
- I3 μM/Icontrol (mean ± SEM, %) GluN2D [6]: 3.5 ± 1.0%
- fold more potent than the (+)-enantiomer at GluN2D ([6]; (−)- versus (+)-enantiomer): 85 fold

Structure (SMILES): O=c1[nH]c2ccccc2c(-c2ccc(Cl)cc2)c1C1=NNC(c2ccncc2)C1 (centres unmarked) [997-78, 4-(4-chlorophenyl)-3-[5-(pyridin-4-yl)-4,5-dihydro-1H-pyrazol-3-yl]quinolin-2(1H)-one]
- GluN2A IC50 [1]: NE (NE indicates less than 50% inhibition at 30 μM.)
- IC50 [7]: 54 µM
- GluN2B IC50 [2]: weak potency
- IC50 [3, 9]: 20 µM
- GluN2C IC50 [4]: weak potency
- IC50 [5, 11]: 19 µM
- GluN2D IC50 [6]: weak potency
- 2B IC50 / 2D IC50 ([6]; ratio of IC50 values): 3

Structure (SMILES): O=C(O)CCC(=O)N1N=C(c2c(-c3ccc(Cl)cc3)c3ccccc3[nH]c2=O)CC1c1ccc(Cl)nc1 (centres unmarked) [997-92, 4-(3-(4-(4-chlorophenyl)-2-oxo-1,2-dihydroquinolin-3-yl)-5-(6-chloropyridin-3-yl)-4,5-dihydro-1H-pyrazol-1-yl)-4-oxobutanoic acid]
- GluN2A IC50 [1]: NE (NE indicates less than 50% inhibition at 30 μM.)
- GluN2B IC50 [2]: NE (NE indicates less than 50% inhibition at 30 μM.)
- IC50 [3, 9]: 8 µM
- GluN2C IC50 [4]: weak activity
- IC50 [5, 11]: 8 µM
- GluN2D IC50 [6]: weak activity

Structure (SMILES): O=C(O)CC(F)(F)C(=O)N1N=C(c2c(-c3ccc(Cl)cc3)c3ccccc3[nH]c2=O)C[C@@H]1c1ccc(Cl)cc1 [(+)-997-74]
- I3 μM/Icontrol (mean ± SEM, %) GluN2A [1]: 95 ± 0.47%
- I3 μM/Icontrol (mean ± SEM, %) GluN2B [2]: 87 ± 1.4%
- IC50 [3, 12]: 3.1 µM
- IC50 [3, 9]: 3.4 µM
- I3 μM/Icontrol (mean ± SEM, %) GluN2C [4]: 56 ± 3.8%
- IC50 [5, 10]: 2.24 µM
- IC50 [5, 11]: 3.9 µM
- I3 μM/Icontrol (mean ± SEM, %) GluN2D [6]: 55 ± 2.7%

Structure (SMILES): O=C(CC(F)(F)C(=O)O)N1N=C(c2c(-c3cccc(F)c3)c3ccccc3[nH]c2=O)CC1c1ccc(Cl)cc1 (centres unmarked) [997-69, 4-{5-(4-chlorophenyl)-3-[4-(3-fluorophenyl)-2-oxo-1,2-dihydroquinolin-3-yl]-4,5-dihydro-1H-pyrazol-1-yl}-2,2-difluoro-4-oxobutanoic acid]
- IC50 [8]: 28 µM
- IC50 [7]: 48 µM
- 2A IC50 / 2D IC50 ([6]; ratio of IC50 values): 56
- 2B IC50 / 2D IC50 ([6]; ratio of IC50 values): 96

Structure (SMILES): O=C(O)CC(F)(F)C(=O)N1N=C(c2ccccc2-c2ccc(Cl)cc2)CC1c1ccc(F)cc1 (centres unmarked) [997-116, 4-(3-(4′-chloro-[1,1′-biphenyl]-2-yl)-5-(4-fluorophenyl)-4,5-dihydro-1H-pyrazol-1-yl)-3,3-difluoro-4-oxobutanoic acid]
- GluN2A IC50 [1]: NE (NE indicates less than 50% inhibition at 30 μM.)
- IC50 [7]: 23.1 µM
- IC50 [3, 9]: 12.1 µM
- IC50 [5, 11]: 7.41 µM
- 2B IC50 / 2D IC50 ([6]; ratio of IC50 values): 3
